In publication PMC8175309, “Translational CNS Steady-State Drug Disposition Model in Rats, Monkeys, and Humans for Quantitative Prediction of Brain-to-Plasma and Cerebrospinal Fluid-to-Plasma Unbound Concentration Ratios” (The AAPS Journal, 2021):
Like-named read-outs stand apart in the source and are kept apart here.

Tests used:
[1] = cited from earlier work
[2] = cited from earlier work; remark: listed apart in the source
[3] = Observed Kp,uu,brain and Kp,uu,CSF in monkeys; conditions: for Kp uu at 6 h: cynomolgus monkey, intravenous; for Kp,uu,CSF Monkey: lumbar CSF; for Kp,uu,CSF Monkey / Kp,uu,brain Monkey: *1 data internally obtained
Experimental: Monkey experiments were conducted internally or at the Drug Safety Research Laboratories in Shin Nippon Biomedical Laboratories via consignment to Axcelead Drug Discovery Partners. […] Detailed dosage regimen for each compound is summarized in Supplemental Table 3. […] Each cassette was assigned to a separate group of monkeys. The vehicle was saline or a mixture of dimethylacetamide and 1,3-butanediol (1:1, v/v). At the end of the 6-h infusion or 1 h after intravenous bolus administration, the monkeys were anesthetized, and whole blood, CSF, and whole brain were collected. Blood was collected using the anticoagulant, heparin sodium, and immediately centrifuged; the plasma was transferred to polypropylene tubes. Then, ketamine hydrochloride (50 mg/mL; 0.2 mL/kg; 10 mg/kg) was intramuscularly administered. CSF was collected after lumbar puncture using a spinal needle (22–25G) and a syringe pre-wetted with 10% CHAPS solution to prevent adsorption of compounds to all the equipment during pretreatment. CSF samples were immediately centrifuged, and the supernatant layers were transferred to polypropylene tubes. […] After collecting the cerebellum, hippocampus, and cerebral cortex from the whole brain, these were washed with cold saline, weighed, and homogenized immediately in 4 volumes of ice-cold 100 mmol/L sodium phosphate buffer. All samples were stored at –80°C until analysis by LC-MS/MS. Each sample (50 μL) was mixed with the working solution (the mixture of dimethyl sulfoxide and acetonitrile (2:8, v/v)), and protein was precipitated by the addition of 150 μL acetonitrile containing the internal standards (5 ng/mL alprenolol and diclofenac). After centrifugation at 5,250 rpm and 4°C for 5 min, the supernatant (150 μL) was transferred to a polypropylene 96-well plate (Corning; Corning, NY, USA) and completely evaporated under a gentle stream of N2. The residue was reconstituted in dilution solution (mobile phase A/B (7:3, v/v)), and the supernatant was analyzed by LC-MS/MS.
Each sample (50 μL) was mixed with the working solution (the mixture of dimethyl sulfoxide and acetonitrile (2:8, v/v)), and the protein was precipitated by adding 150 μL acetonitrile containing internal standards (5 ng/mL alprenolol and diclofenac). After centrifugation at 5250 rpm and 4°C for 5 min, the supernatant (150 μL) was transferred to a polypropylene 96-well plate (Corning) and completely evaporated under a gentle stream of N2. The residue was reconstituted in mobile phase A/B (7:3, v/v)), and the supernatant was analyzed by LC-MS/MS. API5000 and QTRAP5500 (AB SCIEX, Framingham, MA, USA) equipped with Ultra-Fast Liquid Chromatography (Shimadzu, Kyoto, Japan) were used for determination of drug concentrations. Reversed-phase chromatography was performed using Shim-pack XR ODS (2.2 μm, 2.0×30 mm). Mobile phase A consisted of 10 mM ammonium formate with 0.2% formic acid, and mobile phase B contained acetonitrile with 0.2% formic acid. […] The mass spectrometer was operated in the positive ionization mode with multiple reaction monitoring (MRM). The MRM parameters (Q1 ion, Q3 ion, DP, EP, CE, and CXP) for monitoring the compounds are shown in Supplemental Table 4. Data acquisition and processing were performed using Analyst 1.6.2 (AB SCIEX, Framingham, MA, USA).
To perform correlation analyses between the observed Kp,uu,brain and Kp,uu,CSF, and the model-based prediction of Kp,uu,brain and Kp,uu,CSF, data from literature information were integrated into the internally obtained data for these assessments (Supplemental Table 2) ([17],[22]–[24],[27]–[33]). When only the total concentrations in plasma, CSF, and brain were available, the total concentration ratio in plasma to CSF or brain (Kp,CSF or Kp,brain, respectively) was estimated, followed by calculation of Kp,uu,CSF or Kp,uu,brain based on Eqs.

MDR1 = MDR1 (Homo sapiens, UniProt P08183); assay: in vitro; conditions: dog, MDCK-MDR1, pH 7.4
Sequence of MDR1 (P08183 whole entry): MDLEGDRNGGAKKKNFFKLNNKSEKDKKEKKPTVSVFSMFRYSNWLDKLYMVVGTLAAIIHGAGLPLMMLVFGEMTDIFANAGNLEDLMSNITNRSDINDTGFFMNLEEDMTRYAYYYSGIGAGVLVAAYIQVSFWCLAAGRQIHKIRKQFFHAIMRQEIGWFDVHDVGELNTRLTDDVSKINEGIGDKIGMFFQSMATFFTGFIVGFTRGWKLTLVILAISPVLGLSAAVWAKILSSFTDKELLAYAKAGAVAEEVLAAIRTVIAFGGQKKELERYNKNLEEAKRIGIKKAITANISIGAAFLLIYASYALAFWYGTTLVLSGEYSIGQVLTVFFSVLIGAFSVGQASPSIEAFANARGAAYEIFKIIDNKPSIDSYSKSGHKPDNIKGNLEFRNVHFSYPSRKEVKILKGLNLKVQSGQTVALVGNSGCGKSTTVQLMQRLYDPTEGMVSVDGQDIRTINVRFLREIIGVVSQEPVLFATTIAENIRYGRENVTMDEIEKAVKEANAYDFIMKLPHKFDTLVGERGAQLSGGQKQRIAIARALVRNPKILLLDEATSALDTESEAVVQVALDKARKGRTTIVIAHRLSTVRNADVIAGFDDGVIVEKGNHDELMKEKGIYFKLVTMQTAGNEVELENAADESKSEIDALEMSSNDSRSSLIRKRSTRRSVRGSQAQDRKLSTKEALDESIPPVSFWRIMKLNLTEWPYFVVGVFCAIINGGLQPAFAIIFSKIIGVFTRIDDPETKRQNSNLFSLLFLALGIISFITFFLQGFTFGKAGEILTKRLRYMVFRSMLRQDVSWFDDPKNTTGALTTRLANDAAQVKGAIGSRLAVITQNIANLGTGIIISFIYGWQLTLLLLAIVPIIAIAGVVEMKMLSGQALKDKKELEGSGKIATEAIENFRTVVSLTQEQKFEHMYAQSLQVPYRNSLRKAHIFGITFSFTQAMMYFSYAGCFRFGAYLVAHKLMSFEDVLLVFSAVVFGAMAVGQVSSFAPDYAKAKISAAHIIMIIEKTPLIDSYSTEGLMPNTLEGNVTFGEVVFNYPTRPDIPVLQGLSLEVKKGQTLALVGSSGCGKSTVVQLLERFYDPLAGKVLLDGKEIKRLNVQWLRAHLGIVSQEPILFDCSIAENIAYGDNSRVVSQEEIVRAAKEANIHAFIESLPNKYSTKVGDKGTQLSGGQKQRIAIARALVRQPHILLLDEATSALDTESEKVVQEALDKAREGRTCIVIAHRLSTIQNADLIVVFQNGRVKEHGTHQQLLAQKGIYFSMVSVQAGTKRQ
Experimental: (§1) To the compounds available internally, in vitro efflux ratios for MDR1 and BCRP were determined by the following procedure (Supplemental Table 2). Test compound stock solutions in dimethyl sulfoxide (DMSO) were diluted in transport buffer (Hanks’ balanced salt solution (HBSS) with 10 mM HEPES, pH 7.4) to a concentration of 1 μM (DMSO < 1%) and applied to the apical or basolateral side of a cell monolayer derived from Madin-Darby canine kidney (MDCK)-MDR1 and MDCK-BCRP cells. Permeation of the test compounds from apical to basolateral (A to B) direction or B to A direction was measured in duplicate. The plate was incubated for 1 h in a CO2 incubator at 37±1°C with 5% CO2 at saturated humidity without shaking. In addition, the efflux ratio of each compound was also determined. Test and reference compounds were quantified by LC-MS/MS analysis based on the peak area ratio of analyte/internal standard.
(§2) The apparent permeability coefficient Papp (cm/s) was calculated by using Eq. 1: 1 Papp=dCr/dt×Vr/A×C0 where dCr/dt is the cumulative concentration of the compound in the receiver chamber as a function of time (μM/s); Vr is the volume of the solution in the receiver chamber (0.075 mL on the apical side, 0.25 mL on the basolateral side); A is the surface area for transport, i.e., 0.0804 cm^2 for the area of the monolayer; and C0 is the initial concentration (μM) in the donor chamber.
(§3) The efflux ratio was calculated using Eq. 2: 2 Efflux ratio=Papp,BtoA/Papp,AtoB

BCRP = target: T1, BCRP (Homo sapiens, UniProt Q9UNQ0); assay: Transcellular transport across MDCK-BCRP cell monolayers (efflux ratio); conditions: dog, pH 7.4
T1 sequence (Q9UNQ0 1-655): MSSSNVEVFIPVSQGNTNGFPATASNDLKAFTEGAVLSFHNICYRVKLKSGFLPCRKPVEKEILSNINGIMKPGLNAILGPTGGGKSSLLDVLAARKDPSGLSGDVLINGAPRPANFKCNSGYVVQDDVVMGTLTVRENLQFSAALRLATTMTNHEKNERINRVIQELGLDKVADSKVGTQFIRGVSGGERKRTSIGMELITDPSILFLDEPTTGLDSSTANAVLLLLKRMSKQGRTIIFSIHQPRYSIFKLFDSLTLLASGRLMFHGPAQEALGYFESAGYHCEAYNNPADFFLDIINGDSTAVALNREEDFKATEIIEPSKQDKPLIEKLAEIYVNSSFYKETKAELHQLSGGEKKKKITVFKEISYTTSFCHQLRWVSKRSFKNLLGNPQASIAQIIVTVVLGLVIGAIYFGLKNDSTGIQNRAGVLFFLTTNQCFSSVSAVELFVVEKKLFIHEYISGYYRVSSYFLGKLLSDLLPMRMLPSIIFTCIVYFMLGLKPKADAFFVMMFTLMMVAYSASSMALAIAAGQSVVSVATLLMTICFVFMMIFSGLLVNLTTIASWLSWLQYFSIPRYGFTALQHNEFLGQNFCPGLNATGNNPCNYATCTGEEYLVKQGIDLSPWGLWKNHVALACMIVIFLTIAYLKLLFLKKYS
Experimental: as §1, §2, §3

| Structure (SMILES) | Kp,uu,CSF Rat ([1]; *4 ref Friden et al. (21)) | Kp,uu,CSF Human ([2]; *4 ref Friden et al. (21)) | Kp,uu,brain Rat ([1]; *4 ref Friden et al. (21)) | further results |
| --- | --- | --- | --- | --- |
| CN(C)CCC=C1c2ccccc2CCc2ccccc21 [Amitriptyline] | 0.17 | 0.18 |  |  |
| NCC(CC(=O)O)c1ccc(Cl)cc1 (stereo not drawn) [Baclofen] | 0.027 | 0.17 | 0.02 | Kp uu at 6 h ([3]; CSF (lumbar) / plasma): 0.03; Kp uu at 6 h ([3]; brain / plasma): 0.037 |
| CO/N=C(\C(=O)N[C@@H]1C(=O)N2C(C(=O)O)=C(COC(C)=O)CS[C@H]12)c1csc(N)n1 [Cefotaxime] |  | 0.17 |  | Kp,uu,brain Human ([2]; *4 ref Friden et al. (21)): 0.007 |
| CN(C)CCCC1(c2ccc(F)cc2)OCc2cc(C#N)ccc21 (stereo not drawn) [Citalopram] |  |  |  | Kp,uu,brain Rat ([1]; *3 ref Summerfield et al. (25)): 0.623; Kp,uu,CSF Rat ([1]; *7 ref Kodaira et al. (20)): 0.667; Kp,uu,brain Rat ([1]; *7 ref Kodaira et al. (20)): 0.494; Kp,uu,brain Human ([2]; *3 ref Summerfield et al. (25)): 0.347 |
| COc1ccc2c3c1O[C@H]1[C@@H](O)C=C[C@H]4[C@@H](C2)N(C)CC[C@@]341 [Codeine] |  |  |  | Kp,uu,CSF Rat ([1]; in vivo): 0.54; Kp,uu,brain Rat ([1]; in vivo): 0.89; Kp,uu,CSF Human ([2]; in vivo): 0.79 |
| CC(C)Nc1cccnc1N1CCN(C(=O)c2cc3cc(NS(C)(=O)=O)ccc3[nH]2)CC1 [Delavirdine] | 0.051 | 0.23 | 0.043 |  |
| CCC(C(N)=O)(C(N)=O)c1ccccc1 [Ethyl-phenylmalonamide] | 1.4 |  | 1.250 |  |
| COc1cc([C@@H]2c3cc4c(cc3[C@@H](O[C@@H]3O[C@@H]5CO[C@@H](C)O[C@H]5[C@H](O)[C@H]3O)[C@H]3COC(=O)[C@H]23)OCO4)cc(OC)c1O [Etoposide] |  |  |  | efflux ratio at 1 h, 1 μM (MDR1): 6.1; efflux ratio at 1 h, 1 μM (BCRP): 3.7 |
| CNCCC(Oc1ccc(C(F)(F)F)cc1)c1ccccc1 (stereo not drawn) [Fluoxetine] |  |  |  | Kp,uu,brain Rat ([1]; *3 ref Summerfield et al. (25)): 2.143; Kp,uu,brain Human ([2]; *3 ref Summerfield et al. (25)): 0.53 |
| NCC1(CC(=O)O)CCCCC1 [Gabapentin] | 0.067 | 0.16 | 0.140 | Kp,uu,brain Human ([2]; *4 ref Friden et al. (21)): 0.16 |
| C[C@H]1COc2c(N3CCN(C)CC3)c(F)cc3c(=O)c(C(=O)O)cn1c23 [Levofloxacin] | 0.19 | 0.18 | 0.120 |  |
| CN1CC[C@]23c4c5ccc(O[C@@H]6O[C@H](C(=O)O)[C@@H](O)[C@H](O)[C@H]6O)c4O[C@H]2[C@@H](O)C=C[C@H]3[C@H]1C5 [M3G] | 0.049 | 0.081 | 0.011 |  |
| CN1CC[C@]23c4c5ccc(O)c4O[C@H]2[C@@H](O[C@@H]2O[C@H](C(=O)O)[C@@H](O)[C@H](O)[C@H]2O)C=C[C@H]3[C@H]1C5 [M6G] | 0.017 | 0.1 | 0.008 |  |
| CN1CCN2c3ncccc3Cc3ccccc3C2C1 (stereo not drawn) [Mirtazapine] |  |  |  | Kp,uu,brain Rat ([1]; *3 ref Summerfield et al. (25)): 1.611; Kp,uu,brain Human ([2]; *3 ref Summerfield et al. (25)): 0.79 |
| CO[C@@]1(NC(=O)C(C(=O)O)c2ccc(O)cc2)C(=O)N2C(C(=O)O)=C(CSc3nnnn3C)CO[C@@H]21 (stereo partly drawn) [Moxalactam] | 0.02 | 0.41 | 0.019 |  |
| Cc1c(O)cccc1C(=O)N[C@@H](CSc1ccccc1)[C@H](O)CN1C[C@H]2CCCC[C@H]2C[C@H]1C(=O)NC(C)(C)C [Nelfinavir] | 0.067 | 0.045 | 0.019 | Kp,uu,CSF Monkey [3]: 0.640; Kp,uu,brain Monkey [3]: 0.008 |
| O=C1CN(/N=C/c2ccc([N+](=O)[O-])o2)C(=O)N1 [Nitrofurantoin] | 0.0099 |  | 0.011 |  |
| CCn1cc(C(=O)O)c(=O)c2cc(F)c(N3CCNCC3)cc21 [Norfloxacin] | 0.018 | 0.11 | 0.028 |  |
| C=CCOc1ccccc1OCC(O)CNC(C)C (stereo not drawn) [Oxprenolol] | 0.1 |  | 0.200 |  |
| CN1CC[C@]23c4c5ccc(O)c4O[C@H]2C(=O)CC[C@@]3(O)[C@H]1C5 [Oxymorphone] | 0.91 |  | 0.790 |  |
| O=C1NC(=O)C(c2ccccc2)(c2ccccc2)N1 [Phenytoin] |  |  |  | Kp,uu,brain Rat ([1]; *3 ref Summerfield et al. (25)): 0.316; Kp,uu,brain Rat ([1]; *7 ref Kodaira et al. (20)): 0.447; Kp,uu,CSF Rat ([1]; in vivo): 0.396; Kp,uu,brain Human ([2]; *3 ref Summerfield et al. (25)): 0.59 |
| O=C(O)C[C@H](O)C[C@H](O)/C=C/c1c(C2CC2)nc2ccccc2c1-c1ccc(F)cc1 [Pitavastatin] |  |  |  | Kp,uu,CSF Monkey [3]: 0.129; Kp,uu,brain Monkey [3]: 0.242 |
| COc1ccc(C2CNC(=O)C2)cc1OC1CCCC1 (stereo not drawn) [Rolipram] |  |  |  | Kp,uu,brain Human ([2]; *3 ref Summerfield et al. (25)): 1.00 |
| O=C(O)c1ccccc1O [Salicylic acid] | 0.16 | 0.19 | 0.190 |  |
| CC(C)(C)NC(=O)[C@@H]1C[C@@H]2CCCC[C@@H]2CN1C[C@@H](O)[C@H](Cc1ccccc1)NC(=O)[C@H](CC(N)=O)NC(=O)c1ccc2ccccc2n1 [Saquinavir] |  | 0.096 | 0.055 |  |
| CSc1ccc2c(c1)N(CCC1CCCCN1C)c1ccccc1S2 (stereo not drawn) [Thioridazine] | 0.21 | 1.4 | 0.45 | Kp,uu,brain Rat ([1]; *3 ref Summerfield et al. (25)): 1.425 |
| COc1cccc(C2(O)CCCCC2CN(C)C)c1 (stereo not drawn) [Tramadol] |  |  |  | Kp,uu,CSF Rat ([1]; in vivo): 0.71; Kp,uu,brain Rat ([1]; in vivo): 1.460; Kp,uu,CSF Human ([2]; in vivo): 1.44 |
| O=c1n(CCCN2CCN(c3cccc(Cl)c3)CC2)nc2ccccn12 [Trazodone] |  |  |  | Kp,uu,brain Rat ([1]; *3 ref Summerfield et al. (25)): 0.957; Kp,uu,brain Human ([2]; *3 ref Summerfield et al. (25)): 0.93 |
